Experimental findings from patent publication US5684013A, “Tricyclic compounds useful for inhibition of g-protein function and for treatment of proliferative diseases” (Schering Corporation, priority 1995, dated 1997) are described below.

Values joined by “and” are separate entries in the source; they are usually repeats but may differ in a detail not shown here. Equal values may be shown once.

The first assay relates to T24-BAG4 human bladder carcinoma cells. Kind of assay: Cell Mat Assay: inhibition of tumor cell growth. It is filed as cell-based. The note with it: 336 h, tIC50, 14 d colony formation. The procedure:
(§1) Normal human HEPM fibroblasts were planted in 3.5 cm dishes at a density of 5×10^4 cells/dish in 2 ml growth medium, and incubated for 3-5 d to achieve confluence. Medium was aspirated from each dish and the indicator tumor cells, T24-BAG4 human bladder carcinoma cells expressing an activated H-ras gene, were planted on top of the fibroblast monolayer at a density of 2×10^3 cells/dish in 2 ml growth medium, and allowed to attach overnight. Compound-induced colony inhibition was assayed by addition of serial dilutions of compound directly to the growth medium 24 h after tumor cell planting, and incubating cells for an additional 14 d to allow colony formation. Assays were terminated by rinsing monolayers twice with phosphate-buffered saline (PBS), fixing the monolayers with a 1% glutaraldehyde solution in PBS, then visualizing tumor cells by staining with X-Gal (Price, J., et al., Lineage analysis in the vertebrate nervous system by retrovirus-mediated gene transfer, Proc. Natl. Acad. Sci. 84, 156-160(1987)). In the colony inhibition assay, compounds were evaluated on the basis of two IC50 values: the concentration of drug required to prevent the increase in tumor cell number by 50% (tIC50) and the concentration of drug required to reduce the density of cells comprising the cell mat by 50% (mIC50). Both IC50 values were obtained by determining the density of tumor cells and mat cells by visual inspection and enumeration of cells per colony and the number of colonies under the microscope. The therapeutic index of the compound was quantitatively expressed as the ratio of mIC50 /tIC50, with values greater than one indicative of tumor target specificity.
The IC50 is the concentration at which inhibition is half-maximal. `O=S(=O)(c1ccc(F)cc1)N1CCC/C(=C2\c3ccc(Cl)cc3CCc3cccnc32)C1` [Compound E-2H] had an IC50 of 12.5 µM.

Another assay concerns the target T1, farnesyl protein transferase (FPT) (Rattus norvegicus, UniProt Q02293+Q04631).
T1 construct: were partially purified from rat brain by ammonium sulfate fractionation; from tissue; host or cells: rat brain
The experiment in a line: In vitro enzyme assay: inhibition of farnesyl protein transferase (FPT), Ras-CVLS farnesylation. The format is biochemical. The note with it: 14 μM; read-out: FPT inhibition (percent). The text has this:
1. In vitro enzyme assays: Inhibition of farnesyl protein transferase and geranylgeranyl protein transferase.
Both farnesyl protein transferase (FPT) and geranylgeranyl protein transferase (GGPT) I were partially purified from rat brain by ammonium sulfate fractionation followed by Q-Sepharose (Pharmacia, Inc.) anion exchange chromatography essentially as described by Yokoyama et al (Yokoyama, K., et al., (1991), A protein geranylgeranyltransferase from bovine brain: Implications for protein prenylation specificity, Proc. Natl. Acad. Sci USA 88: 5302-5306, the disclosure of which is incorporated herein by reference thereto). Human farnesyl protein transferase was also expressed in E. coli, using cDNA clones encoding both the a and b subunits. The methods used were similar to those published (Omer, C. et al., (1993), Characterization of recombinant human farnesyl protein transferase: Cloning, expression, farnesyl diphosphate binding, and functional homology with yeast prenyl-protein transferases, Biochemistry 32:5167-5176). Human farnesyl protein transferase was partially-purified from the soluble protein fraction of E. coli as described above. the tricyclic farnesyl protein transferase inhibitors disclosed herein inhibited both human and rat enzyme with similar potencies. Two forms of val^12 -Ha-Ras protein were prepared as substrates for these enzymes, differing in their carboxy terminal sequence. One form terminated in cysteine-valine-leucine-serine (Ras-CVLS) the other in cystein-valine-leucine-leucine (Ras-CVLL). Ras-CVLS is a substrate for the farnesyl protein transferase while Ras-CVLL is a substrate for geranylgeranyl protein transferase I. The cDNAs encoding these proteins were constructed so that the proteins contain an amino-terminal extension of 6 histidine residues. Both proteins were expressed in Escherichia coli and purified using metal chelate affinity chromatography. The radiolabelled isoprenyl pyrophosphate substrates, [^3 H]farnesyl pyrophosphate and [^3 H]geranylgeranyl pyrophosphate, were purchased from DuPont/New England Nuclear.
Several methods for measuring farnesyl protein transferase activity have been described (Reiss et al 1990, Cell 62: 81; Schaber et al 1990, J. Biol. Chem. 265: 14701; Manne et al 1990, PNAS 87: 7541; and Barbacid & Manne 1993, U.S. Pat. No. 5,185,248). The activity was assayed by measuring the transfer of [^3 H]farnesyl from [^3 H]farnesyl pyrophosphate to Ras-CVLS using conditions similar to those described by Reiss et al. 1990 (Cell 62: 81) The reaction mixture contained 40 mM Hepes, pH 7.5; 20 mM magnesium chloride; 5 mM dithiothreitol; 0.25 μM [^3 H]farnesyl pyrophosphate; […] Q-Sepharose-purified farnesyl protein transferase; the indicated concentration of tricyclic compound or dimethylsulfoxide (DMSO) vehicle control (5% DMSO final); and […] Ras-CVLS in a total volume of […]. The reaction was allowed to proceed for 30 minutes at room temperature and then stopped with 0.5 ml of 4% sodium dodecyl sulfate (SDS) followed by 0.5 ml of cold 30% trichloracetic acid (TCA). Samples were allowed to sit on ice for 45 minutes and precipitated Ras protein was then collected on GF/C filter paper mats using a Brandel cell harvester. Filter mats were washed once with 6% TCA, 2% SDS and radioactivity was measured in a Wallac 1204 Betaplate BS liquid scintillation counter. Percent inhibition was calculated relative to the DMSO vehicle control.
The term inhibition denotes the share of the control response that was lost under treatment. On to `O=C(Cc1ccncc1)N1CC/C(=C2/c3ccc(Cl)cc3CCc3cccnc32)C1` [Compound E-3A], for which the inhibition at 14 µM is 11%.

`O=C(Cc1ccncc1)N1CC/C(=C2\c3ccc(Cl)cc3CCc3cccnc32)C1` [Compound E-3M]: the inhibition at 14 µM came to 37%.

Staying with this assay, now noted: 15 μM; read-out: FPT inhibition (percent).
On to `CS(=O)(=O)N1CCC/C(=C2\c3ccc(Cl)cc3CCc3cccnc32)C1` [Compound E-2M], for which the inhibition at 15 µM was determined as 15%.

The assay is the same for the next values; noted with them: 42 μM; read-out: FPT inhibition (percent).
With `COc1ccc(S(=O)(=O)N2CCC/C(=C3\c4ccc(Cl)cc4CCc4cccnc43)C2)cc1` [Compound E-2G], the inhibition at 42 µM was 33%.

Staying with this assay, now noted: 50 μM; read-out: FPT inhibition (percent).
`O=C(c1ccco1)N1CC/C(=C2/c3ccc(Cl)cc3CCc3cccnc32)C1` [Compound E-3B]: the inhibition at 50 µM turned out to be 33%.

The same assay, now with this note: Table 2.
As for `O=C(c1ccccc1)N1CCC/C(=C2\c3ccc(Cl)cc3CCc3cccnc32)C1` [Compound E-7], the “FPT IC50” value was “inactive”.

The assay is the same for the next values; noted with them: Table 2; read-out: FPT IC50.
With `O=S(=O)(c1cccs1)N1CC/C(=C2\c3ccccc3CCc3cccnc32)C1` [Compound E-1B], the IC50 was determined as 3.3 µM.

Turning to `O=S(=O)(c1cccs1)N1CCC/C(=C2\c3ccc(Cl)cc3CCc3cc(Br)cnc32)C1` [Compound E-1D], the IC50 turned out to be 0.84 µM.

Consider `O=S(=O)(c1cccs1)N1CCC/C(=C2/c3ccc(Cl)cc3CCc3cccnc32)C1` [Compound E-1J], for which the IC50 is 4.8 µM.

Turning to `O=C(NCc1ccc(S(=O)(=O)N2CCC/C(=C3/c4ccc(Cl)cc4CCc4cccnc43)C2)s1)c1ccccc1` [Compound E-1K], the IC50 was > 34 µM.

As for `O=S(=O)(c1cccs1)N1CC/C(=C2\c3ccc(Cl)cc3CCc3cccnc32)C1` [Compound E-1], the IC50 is < 0.45 µM and 0.52 µM.

Take `O=S(=O)(c1ccccc1)N1CC/C(=C2\c3ccccc3CCc3cccnc32)C1` [Compound E-2C]: the IC50 came out at 2.8 µM.

With `O=S(=O)(c1ccccc1)N1CCC/C(=C2\c3ccc(Cl)cc3CCc3cc(Br)cnc32)C1` [Compound E-2D], the IC50 was 0.58 µM.

As to `O=S(=O)(c1ccc(F)cc1)N1CCC/C(=C2\c3ccc(Cl)cc3CCc3cccnc32)C1` [Compound E-2H], the IC50 was found to be 1.34 µM.

Turning to `CC(=O)Nc1ccc(S(=O)(=O)N2CCC/C(=C3\c4ccc(Cl)cc4CCc4cccnc43)C2)cc1` [Compound E-2J], the IC50 is > 39.4 µM.

Consider `Cc1ccc(S(=O)(=O)N2CCC/C(=C3\c4ccc(Cl)cc4CCc4cccnc43)C2)cc1` [Compound E-2K], for which the IC50 is > 13 µM.

In the case of `Cc1cc(C)c(S(=O)(=O)N2CCC/C(=C3\c4ccc(Cl)cc4CCc4cccnc43)C2)c(C)c1` [Compound E-2L], the IC50 is > 12 µM.

Take `O=S(=O)(Cc1ccccc1)N1CCC/C(=C2\c3ccc(Cl)cc3CCc3cccnc32)C1` [Compound E-2N]: the IC50 was > 13 µM.

Consider `O=S(=O)(c1ccccc1)N1CCC/C(=C2/c3ccc(Cl)cc3CCc3cccnc32)C1` [Compound E-2P], for which the IC50 stood at 3.3 µM.

As to `O=[N+]([O-])c1ccc(S(=O)(=O)N2CCC/C(=C3/c4ccc(Cl)cc4CCc4cccnc43)C2)cc1` [Compound E-2Q], the IC50 is > 40 µM.

On to `COc1ccc(S(=O)(=O)N2CCC/C(=C3/c4ccc(Cl)cc4CCc4cccnc43)C2)cc1` [Compound E-2R], for which the IC50 is > 42 µM.

In the case of `O=S(=O)(c1ccc(F)cc1)N1CCC/C(=C2/c3ccc(Cl)cc3CCc3cccnc32)C1` [Compound E-2S], the IC50 is > 43 µM.

On to `CC(=O)Nc1ccc(S(=O)(=O)N2CCC/C(=C3/c4ccc(Cl)cc4CCc4cccnc43)C2)cc1` [Compound E-2T], for which the IC50 is 33.5 µM.

For `O=S(=O)(c1ccccc1)N1CCCC(C2c3ccc(Cl)cc3C=Cc3cccnc32)C1` (centres unmarked) [Compound E-2U], the IC50 came to 6.4 µM.

Turning to `CS(=O)(=O)N1CCCC(C2c3ccc(Cl)cc3C=Cc3cccnc32)C1` (centres unmarked) [Compound E-2V], the IC50 amounted to 44 µM.

For the compound `O=C(Cc1cccnc1)N1CCCC(C2c3ccc(Cl)cc3CCc3cccnc32)C1` (centres unmarked) [Compound E-3C], the IC50 amounted to 8 µM.

In the case of `O=C(Cc1ccncc1)N1CCCC(C2c3ccc(Cl)cc3CCc3cccnc32)C1` (centres unmarked) [Compound E-3D], the IC50 is > 13.9 µM.

`O=C(Cc1cccnc1)N1CCC/C(=C2\c3ccc(Cl)cc3CCc3cccnc32)C1` [Compound E-3E]: the half-maximal inhibitory concentration (IC50) turned out to be 7.8 µM.

With `O=C(Cc1ccncc1)N1CCC/C(=C2\c3ccc(Cl)cc3CCc3cccnc32)C1` [Compound E-3F], the IC50 is > 14 µM.

Turning to `O=C(CCc1ccccc1)N1CCC/C(=C2\c3ccc(Cl)cc3CCc3cccnc32)C1` [Compound E-3G], the IC50 was > 45 µM.

As to `O=C(Cc1cccnc1)N1CCC/C(=C2/c3ccc(Cl)cc3CCc3cccnc32)C1` [Compound E-3J], the IC50 turned out to be 5.1 µM.

Consider `O=C(Cc1ccncc1)N1CCC/C(=C2/c3ccc(Cl)cc3CCc3cccnc32)C1` [Compound E-3K], for which the IC50 is > 14 µM.

For `O=C(CCc1ccccc1)N1CCC/C(=C2/c3ccc(Cl)cc3CCc3cccnc32)C1` [Compound E-3L], the IC50 was > 45 µM.

For `O=C(CSc1ccncc1)N1CC/C(=C2\c3ccc(Cl)cc3CCc3cccnc32)C1` [Compound E-3N], the IC50 amounted to 4.2 µM.

On to `O=C(CSc1ccncc1)N1CC/C(=C2/c3ccc(Cl)cc3CCc3cccnc32)C1` [Compound E-3], for which the half-inhibitory concentration (IC50) is 6.9 µM.

As for `O=S(=O)(c1cccnc1)N1CCCC(C2c3ccc(Cl)cc3C=Cc3cccnc32)C1` (centres unmarked) [Compound E-4A], the IC50 was 7.5 µM.

Regarding `O=S(=O)(c1cccnc1)N1CCC/C(=C2/c3ccc(Cl)cc3CCc3cccnc32)C1` [Compound E-4B], the IC50 was determined as 8.8 µM.

In the case of `O=S(=O)(c1cccnc1)N1CCC/C(=C2\c3ccc(Cl)cc3CCc3cccnc32)C1` [Compound E-4], the IC50 came out at 0.97 µM.

`O=C(Nc1ccccc1)N1CCC/C(=C2\c3ccc(Cl)cc3CCc3cccnc32)C1` [Compound E-5]: the IC50 is > 14 µM.

In the case of `O=C(Sc1ccccc1)N1CCC/C(=C2\c3ccc(Cl)cc3CCc3cccnc32)C1` [Compound E-6], the IC50 was > 13 µM.

`O=C(c1cccnc1)N1CCC/C(=C2\c3ccc(Cl)cc3CCc3cccnc32)C1` [Compound E-7A]: the IC50 is > 14.4 µM.

Consider `O=C(Cc1ccccc1)N1CCC/C(=C2\c3ccc(Cl)cc3CCc3cccnc32)C1` [Compound E-7B], for which the IC50 is > 14 µM.

The test system of a further assay is Normal human HEPM fibroblasts. The experiment in a line: Cell Mat Assay: inhibition of normal cell growth (cell mat). The format is cell-based. The settings on record: Fibroblast, mIC50, normal cell monolayer. The procedure:
as §1
In the case of `O=S(=O)(c1ccc(F)cc1)N1CCC/C(=C2\c3ccc(Cl)cc3CCc3cccnc32)C1` [Compound E-2H], the IC50 is > 25 µM.
